Experimental data published in patent publication US20170334899A1, “AMINO-SUBSTITUTED ISOTHIAZOLES” (Bayer Pharma Aktiengesellschaft, priority 2014, published 2017).

Assays:
HeLa = assay: Proliferation assay (crystal violet), HeLa; assay type: cell-based; details: Homo sapiens, HeLa, 96 h, HeLa cells; 4 days incubation; crystal violet staining; read-out: IC50 inhibition of proliferation, HeLa
In short: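 Crystal violet proliferation readout, 4-day compound incubation, 0.001–10 μM, final DMSO 0.5%. Zero-point plate stained at time of dosing set as 0%, untreated control as 100%; IC50 via 4-parameter fit.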

[1] = molecular target: T1, catalytic domain of human Bub1 (amino acids 704-1085) (Homo sapiens, UniProt O43683); assay: Bub1 kinase assay (TR-FRET); assay type: biochemical; details: 10 μM ATP, avg, read-out: Bub1 avg (IC50 [mol/l])
T1 construct: catalytic domain of human Bub1 (amino acids 704-1085); His6 (N); made in house; host or cells: insect cells (Hi5)
In short: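 Readout is the 665/620 nm TR-FRET ratio from anti-phosphoserine antibody, Eu-labelled anti-mouse IgG and streptavidin-XL665, scaled between no-enzyme and uninhibited controls. Reaction: 1 μM biotinylated peptide, 10 μM ATP, 60 min, 22 °C, after 15 min compound preincubation with His6-Bub1 (704-1085, insect-expressed, ~200 ng/ml).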

T1 sequence (O43683 704-1085): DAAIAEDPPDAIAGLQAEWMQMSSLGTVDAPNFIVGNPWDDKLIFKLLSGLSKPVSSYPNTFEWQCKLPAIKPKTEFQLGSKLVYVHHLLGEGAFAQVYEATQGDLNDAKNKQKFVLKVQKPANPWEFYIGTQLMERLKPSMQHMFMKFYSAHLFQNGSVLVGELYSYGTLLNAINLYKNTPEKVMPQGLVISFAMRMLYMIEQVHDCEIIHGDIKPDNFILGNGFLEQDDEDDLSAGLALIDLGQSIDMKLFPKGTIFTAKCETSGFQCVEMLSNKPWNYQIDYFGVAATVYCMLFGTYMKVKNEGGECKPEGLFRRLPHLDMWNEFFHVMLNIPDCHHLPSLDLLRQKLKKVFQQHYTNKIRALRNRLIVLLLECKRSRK

Q: What does the source list for `Cc1nsc(Nc2cnc3ccccc3n2)c1C(=O)Nc1ccc(OC2CCN(CC(F)(F)F)CC2)nc1` [Example 21, 3-Methyl-5-(quinoxalin-2-ylamino)-N-(6-{[1-(2,2,2-trifluoroethyl)piperidin-4-yl]oxy}-pyridin-3-yl)-1,2-thiazole-4-carboxamide]?
A: IC50 (HeLa): 0.87 µM; IC50 [1]: ≥ 20 µM

Q: For `CC(=O)N1CCC(Oc2ccc(NC(=O)c3c(C)nsc3Nc3cnc4ccccc4n3)cn2)CC1` [Example 22, N-{6-[(1-acetylpiperidin-4-yl)oxy]pyridin-3-yl}-3-methyl-5-(quinoxalin-2-ylamino)-1,2-thiazole-4-carboxamide], which IC50 (HeLa) is on record?
A: Its IC50 is 7.6 µM.

Q: What about the IC50 [1] of the same compound?
A: Its IC50 is no less than 20 µM.

Q: With `Cc1nsc(Nc2cc(C#N)ccn2)c1C(=O)Nc1ccc(OC2CCN(C(=O)OC(C)(C)C)CC2)nc1` [Example 23, tert-Butyl 4-({5-[({5-[(4-cyanopyridin-2-yl)amino]-3-methyl-1,2-thiazol-4-yl}-carbonyl)amino]pyridin-2-yl}oxy)piperidine-1-carboxylate] as the compound, how does the IC50 (HeLa) read?
A: Its IC50 is 2.6 µM.

Q: What about the IC50 [1] of the same compound?
A: Its IC50 is no less than 20 µM.

Q: Which IC50 (HeLa) does the source give for `Cc1nsc(Nc2cc(C#N)ccn2)c1C(=O)Nc1ccc(OC2CCNCC2)nc1` [Example 24, 5-[(4-Cyanopyridin-2-yl)amino]-3-methyl-N-[6-(piperidin-4-yloxy)pyridin-3-yl]-1,2-thiazole-4-carboxamide] here?
A: Its IC50 is 10 µM.

Q: And the IC50 [1]?
A: Its IC50 is no less than 20 µM.

Q: Which IC50 (HeLa) does the source give for `Cc1nsc(Nc2cc(C#N)ccn2)c1C(=O)Nc1ccc(OC2CCN(CC(F)(F)F)CC2)nc1` [Example 25, 5-[(4-Cyanopyridin-2-yl)amino]-3-methyl-N-(6-{[1-(2,2,2-trifluoroethyl)piperidin-4-yl]oxy}pyridin-3-yl)-1,2-thiazole-4-carboxamide] here?
A: The IC50 was 2.1 µM.

Q: And the IC50 [1]?
A: The IC50 was no less than 20 µM.

Q: Which results are given for `CCN1CCC(Oc2ccc(NC(=O)c3c(C)nsc3Nc3cc(C#N)ccn3)cn2)CC1` [Example 26, 5-[(4-Cyanopyridin-2-yl)amino]-N-{6-[(1-ethylpiperidin-4-yl)oxy]pyridin-3-yl}-3-methyl-1,2-thiazole-4-carboxamide]?
A: IC50 (HeLa): 10 µM; IC50 [1]: ≥ 20 µM

Q: `Cc1nsc(Nc2ccc(C#N)cn2)c1C(=O)Nc1ccc(OC2CCN(C(=O)OC(C)(C)C)CC2)nc1` [Example 27, tert-Butyl 4-({5-[({5-[(5-cyanopyridin-2-yl)amino]-3-methyl-1,2-thiazol-4-yl}-carbonyl)amino]pyridin-2-yl}oxy)piperidine-1-carboxylate] was tested. Which IC50 (HeLa) did it give?
A: Its IC50 is 0.63 µM.

Q: And the IC50 [1]?
A: Its IC50 is no less than 20 µM.

Q: For `Cc1nsc(Nc2cnc3ccccc3n2)c1C(=O)Nc1ccc(N2CCN(C(=O)OC(C)(C)C)CC2)nc1` [Example 248, tert-butyl 4-[5-({[3-methyl-5-(quinoxalin-2-ylamino)-1,2-thiazol-4-yl]carbonyl}amino)pyridin-2-yl]piperazine-1-carboxylate], which IC50 (HeLa) is on record?
A: Its IC50 is 3.1 µM.

Q: And the IC50 [1]?
A: Its IC50 is greater than 20 µM.

Q: What does the source list for `Cc1nsc(Nc2cnc3ccccc3n2)c1C(=O)Nc1cccc(C(=O)NC2CC2)c1` [Example 249, N-[3-(cyclopropylcarbamoyl)phenyl]-3-methyl-5-(quinoxalin-2-ylamino)-1,2-thiazole-4-carboxamide]?
A: IC50 (HeLa): 6.2 µM; IC50 [1]: 1.2 µM

Q: With `Cc1nsc(Nc2ccc(C#N)cn2)c1C(=O)Nc1cccc(C(=O)NC2CC2)c1` [Example 250, 5-[(5-cyanopyridin-2-yl)amino]-N-[3-(cyclopropylcarbamoyl)phenyl]-3-methyl-1,2-thiazole-4-carboxamide] as the compound, how does the IC50 (HeLa) read?
A: Its IC50 is greater than 10 µM.

Q: What about the IC50 [1] of the same compound?
A: Its IC50 is greater than 20 µM.

Q: With `CCNC(=O)c1cccc(NC(=O)c2c(C)nsc2Nc2cnc3ccccc3n2)c1` [Example 251, N-[3-(ethylcarbamoyl)phenyl]-3-methyl-5-(quinoxalin-2-ylamino)-1,2-thiazole-4-carboxamide] as the compound, how does the IC50 (HeLa) read?
A: Its IC50 is 4.5 µM.

Q: What about the IC50 [1] of the same compound?
A: Its IC50 is 0.6 µM.

Q: How did the IC50 (HeLa) turn out when `CCNC(=O)c1cccc(NC(=O)c2c(C)nsc2Nc2ccc(C#N)cn2)c1` [Example 252, 5-[(5-cyanopyridin-2-yl)amino]-N-[3-(ethylcarbamoyl)phenyl]-3-methyl-1,2-thiazole-4-carboxamide] was run?
A: Its IC50 is greater than 10 µM.

Q: What about the IC50 [1] of the same compound?
A: Its IC50 is greater than 20 µM.

Q: `Cc1nsc(Nc2cnc3ccccc3n2)c1C(=O)Nc1cccc(C(=O)NC(C)C)c1` [Example 253, N-[3-(isopropylcarbamoyl)phenyl]-3-methyl-5-(quinoxalin-2-ylamino)-1,2-thiazole-4-carboxamide] was tested. Which IC50 (HeLa) did it give?
A: Its IC50 is 3.1 µM.

Q: And the IC50 [1]?
A: The IC50 was 0.32 µM.

Q: Which IC50 (HeLa) does the source give for `Cc1nsc(Nc2cc(C#N)ccn2)c1C(=O)Nc1cccc(C(=O)NC(C)C)c1` [Example 254, 5-[(4-cyanopyridin-2-yl)amino]-N-[3-(isopropylcarbamoyl)phenyl]-3-methyl-1,2-thiazole-4-carboxamide] here?
A: The IC50 was greater than 10 µM.

Q: What about the IC50 [1] of the same compound?
A: Its IC50 is 3.2 µM.

Q: `Cc1nsc(Nc2ccc(C#N)cn2)c1C(=O)Nc1cccc(C(=O)NC(C)C)c1` [Example 255, 5-[(5-cyanopyridin-2-yl)amino]-N-[3-(isopropylcarbamoyl)phenyl]-3-methyl-1,2-thiazole-4-carboxamide] was tested. Which IC50 (HeLa) did it give?
A: Its IC50 is 6.1 µM.

Q: And the IC50 [1]?
A: The IC50 was greater than 20 µM.

Q: For `COC(=O)CCCc1ccc(NC(=O)c2c(C)nsc2Nc2cc(C#N)ccn2)cc1` [Example 256, methyl 4-{4-[({5-[(4-cyanopyridin-2-yl)amino]-3-methyl-1,2-thiazol-4-yl}carbonyl)amino]phenyl}butanoate], which IC50 (HeLa) is on record?
A: Its IC50 is greater than 10 µM.

Q: What about the IC50 [1] of the same compound?
A: The IC50 was greater than 20 µM.

Q: How did the IC50 (HeLa) turn out when `COC(=O)CCc1cccc(NC(=O)c2c(C)nsc2Nc2cnc3ccccc3n2)c1` [Example 257, methyl 3-[3-({[3-methyl-5-(quinoxalin-2-ylamino)-1,2-thiazol-4-yl]carbonyl}amino)phenyl]propanoate] was run?
A: Its IC50 is 7.7 µM.

Q: What about the IC50 [1] of the same compound?
A: The IC50 was greater than 20 µM.

Q: What does the source list for `Cc1nsc(Nc2cnc3ccccc3n2)c1C(=O)Nc1cccc(NS(=O)(=O)C2CCN(C(=O)OC(C)(C)C)CC2)c1` [Example 258, tert-butyl 4-{[3-({[3-methyl-5-(quinoxalin-2-ylamino)-1,2-thiazol-4-yl]carbonyl}amino)phenyl]sulfamoyl} piperidine-1-carboxylate]?
A: IC50 (HeLa): 7 µM; IC50 [1]: > 20 µM

Q: With `Cc1nsc(Nc2cnc(C(F)(F)F)cn2)c1C(=O)Nc1ccc(C(=O)NC2CCN(CC(F)F)CC2)cc1` [Example 259, N-(4-{[1-(2,2-difluoroethyl)piperidin-4-yl]carbamoyl}phenyl)-3-methyl-5-{[5-(trifluoromethyl)pyrazin-2-yl]amino}-1,2-thiazole-4-carboxamide] as the compound, how does the IC50 (HeLa) read?
A: Its IC50 is greater than 10 µM.

Q: What about the IC50 [1] of the same compound?
A: The IC50 was greater than 20 µM.

Q: Which IC50 (HeLa) does the source give for `Cc1nsc(Nc2cnc(C(F)(F)F)cn2)c1C(=O)Nc1ccc(C(=O)N2CCN(CC(F)(F)F)CC2)cc1` [Example 260, 3-methyl-N-(4-{[4-(2,2,2-trifluoroethyl)piperazin-1-yl]carbonyl}phenyl)-5-{[5-(trifluoromethyl)pyrazin-2-yl]amino}-1,2-thiazole-4-carboxamide] here?
A: Its IC50 is 1.5 µM.

Q: What about the IC50 [1] of the same compound?
A: Its IC50 is greater than 20 µM.

Q: How did the IC50 (HeLa) turn out when `CCN1CCN(C(=O)c2ccc(NC(=O)c3c(C)nsc3Nc3cnc(C(F)(F)F)cn3)cc2)CC1` [Example 261, N-{4-[(4-ethylpiperazin-1-yl)carbonyl]phenyl}-3-methyl-5-{[5-(trifluoromethyl)pyrazin-2-yl]amino}-1,2-thiazole-4-carboxamide] was run?
A: The IC50 was 4.8 µM.

Q: What about the IC50 [1] of the same compound?
A: The IC50 was greater than 20 µM.

Q: Which results are given for `Cc1nsc(Nc2cnc(C(F)(F)F)cn2)c1C(=O)Nc1ccc(C(=O)N2CCN(C)CC2)cc1` [Example 262, 3-methyl-N-{4-[(4-methylpiperazin-1 yl)carbonyl]phenyl}-5-{[5-(trifluoromethyl)pyrazin-2-yl]amino}-1,2-thiazole-4-carboxamide]?
A: IC50 (HeLa): 9.4 µM; IC50 [1]: > 20 µM

Q: Which results are given for `Cc1nsc(Nc2cc(C#N)ccn2)c1C(=O)Nc1ccc(OC2CCN(CC(F)F)CC2)nc1` [Example 263, 5-[(4-cyanopyridin-2-yl)amino]-N-(6-{[1-(2,2-difluoroethyl)piperidin-4-yl]oxy}pyridin-3-yl)-3-methyl-1,2-thiazole-4-carboxamide]?
A: IC50 (HeLa): 3.2 µM; IC50 [1]: > 20 µM

Q: `Cc1nsc(Nc2cnc(C(F)(F)F)cn2)c1C(=O)Nc1ccc(F)c(OC2CCN(CC(F)(F)F)CC2)c1` [Example 264, N-(4-fluoro-3-{[1-(2,2,2-trifluoroethyl)piperidin-4-yl]oxy}phenyl)-3-methyl-5-{[5-(trifluoromethyl)pyrazin-2-yl]amino}-1,2-thiazole-4-carboxamide] was tested. Which IC50 (HeLa) did it give?
A: The IC50 was 0.13 µM.

Q: What about the IC50 [1] of the same compound?
A: The IC50 was greater than 20 µM.

Q: How did the IC50 (HeLa) turn out when `Cc1nsc(Nc2cnc(C(F)(F)F)cn2)c1C(=O)Nc1ccc(F)c(OC2CCN(CC(F)F)CC2)c1` [Example 265, N-(3-{[1-(2,2-difluoroethyl)piperidin-4-yl]oxy}-4-fluorophenyl)-3-methyl-5-{[5-(trifluoromethyl)pyrazin-2-yl]amino}-1,2-thiazole-4-carboxamide] was run?
A: The IC50 was 0.32 µM.

Q: And the IC50 [1]?
A: Its IC50 is greater than 20 µM.

Q: For `Cc1nsc(Nc2cnc(C(F)(F)F)cn2)c1C(=O)Nc1ccc(F)c(OC2CCN(CCF)CC2)c1` [Example 266, N-(4-fluoro-3-{[1-(2-fluoroethyl)piperidin-4-yl]oxy}phenyl)-3-methyl-5-{[5-(trifluoromethyl)pyrazin-2-yl]amino}-1,2-thiazole-4-carboxamide], which IC50 (HeLa) is on record?
A: The IC50 was 0.31 µM.

Q: And the IC50 [1]?
A: The IC50 was greater than 20 µM.

Q: Which IC50 (HeLa) does the source give for `Cc1nsc(Nc2cncc(C(F)(F)F)n2)c1C(=O)Nc1ccc(F)c(OC2CCN(CC(F)(F)F)CC2)c1` [Example 267, N-(4-fluoro-3-{[1-(2,2,2-trifluoroethyl)piperidin-4-yl]oxy}phenyl)-3-methyl-5-{[6-(trifluoromethyl)pyrazin-2-yl]amino}-1,2-thiazole-4-carboxamide] here?
A: Its IC50 is 0.58 µM.

Q: What about the IC50 [1] of the same compound?
A: The IC50 was greater than 20 µM.
